From patent US4990500A, “Oxirane pseudooligosaccharides, a process for their preparation, their use and pharmaceutical preparations” (Hoechst Aktiengesellschaft, priority 1986, dated 1991)
Counter-ions that a name gives are not always drawn. Blank lines part the entries; values can stand above or below the compound they belong to.

Tests used:
[1] = biological target: T1, saccharase (disaccharidases from the small intestine mucosa) (Homo sapiens, UniProt P14410); assay: Saccharase test (inhibition of saccharase, hexokinase/glucose-6-phosphate dehydrogenase method); type: biochemical; conditions: for specific activity, saccharase inhibitor units (SIU) per mg: 1 SIU = amount inhibiting two saccharase units to 50%
T1 construct: from tissue
T1 sequence (P14410 whole entry): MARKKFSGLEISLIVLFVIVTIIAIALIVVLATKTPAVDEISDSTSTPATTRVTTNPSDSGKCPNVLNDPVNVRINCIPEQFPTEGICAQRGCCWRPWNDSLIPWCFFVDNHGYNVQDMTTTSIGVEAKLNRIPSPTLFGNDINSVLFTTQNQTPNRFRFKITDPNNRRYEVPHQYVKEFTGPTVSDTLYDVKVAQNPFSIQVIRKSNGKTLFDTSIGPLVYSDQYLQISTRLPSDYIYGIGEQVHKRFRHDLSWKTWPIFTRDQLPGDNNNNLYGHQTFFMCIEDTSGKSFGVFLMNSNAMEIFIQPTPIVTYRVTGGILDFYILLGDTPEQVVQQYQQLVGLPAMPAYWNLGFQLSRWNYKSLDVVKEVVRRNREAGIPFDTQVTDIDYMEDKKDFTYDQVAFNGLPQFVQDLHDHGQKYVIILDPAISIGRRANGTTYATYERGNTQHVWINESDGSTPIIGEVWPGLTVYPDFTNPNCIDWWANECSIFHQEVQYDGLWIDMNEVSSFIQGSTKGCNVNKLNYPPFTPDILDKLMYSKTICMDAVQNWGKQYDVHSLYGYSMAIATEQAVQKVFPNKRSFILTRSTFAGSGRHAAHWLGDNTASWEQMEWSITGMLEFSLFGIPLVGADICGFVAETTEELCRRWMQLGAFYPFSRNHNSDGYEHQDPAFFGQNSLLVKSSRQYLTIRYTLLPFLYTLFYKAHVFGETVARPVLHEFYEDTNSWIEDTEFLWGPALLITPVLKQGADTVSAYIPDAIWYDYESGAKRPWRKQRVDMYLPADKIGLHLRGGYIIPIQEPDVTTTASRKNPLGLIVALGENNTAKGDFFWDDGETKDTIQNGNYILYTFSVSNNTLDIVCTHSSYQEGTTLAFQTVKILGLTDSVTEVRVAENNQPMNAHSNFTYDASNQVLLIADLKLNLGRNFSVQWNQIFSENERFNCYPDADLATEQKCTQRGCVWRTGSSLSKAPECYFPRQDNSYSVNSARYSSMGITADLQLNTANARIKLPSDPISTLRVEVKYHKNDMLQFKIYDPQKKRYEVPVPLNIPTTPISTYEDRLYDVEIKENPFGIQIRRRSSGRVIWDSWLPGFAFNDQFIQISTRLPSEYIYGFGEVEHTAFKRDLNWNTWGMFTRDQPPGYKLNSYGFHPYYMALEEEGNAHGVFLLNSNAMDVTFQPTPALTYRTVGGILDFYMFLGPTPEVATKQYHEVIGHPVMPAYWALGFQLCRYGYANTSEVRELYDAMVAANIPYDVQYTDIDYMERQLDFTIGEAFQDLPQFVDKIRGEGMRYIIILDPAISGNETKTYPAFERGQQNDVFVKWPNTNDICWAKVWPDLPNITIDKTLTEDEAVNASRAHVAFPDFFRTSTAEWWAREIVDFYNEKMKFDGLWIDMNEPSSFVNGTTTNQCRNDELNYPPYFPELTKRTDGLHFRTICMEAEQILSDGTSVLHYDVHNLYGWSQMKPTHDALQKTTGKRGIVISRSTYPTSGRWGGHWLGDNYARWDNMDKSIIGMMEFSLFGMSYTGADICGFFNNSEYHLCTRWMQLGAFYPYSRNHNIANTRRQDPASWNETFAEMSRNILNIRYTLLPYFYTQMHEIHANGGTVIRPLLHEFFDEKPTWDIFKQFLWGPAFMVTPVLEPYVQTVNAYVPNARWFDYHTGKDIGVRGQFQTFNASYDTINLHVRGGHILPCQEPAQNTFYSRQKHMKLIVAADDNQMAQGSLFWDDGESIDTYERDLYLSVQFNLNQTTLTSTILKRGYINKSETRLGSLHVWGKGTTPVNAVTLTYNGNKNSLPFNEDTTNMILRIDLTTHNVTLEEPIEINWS
Experimental: (§1) The specific activities are 4×10^4 α-amylase inhibitor units (AIU) per mg and 1×10^4 saccharase inhibitor unit (SIU) per mg respectively for W-46 H, and 1×10^4 AIU per mg and 3×10^4 SIU per mg respectively for the inhibitor W-46 P. The activities were determined in the following tests:
One saccharase inhibitor unit (SIU) is defined as the amount of inhibitor which is capable of inhibiting to 50% two saccharase units (SU) under the test conditions. According to international agreement, one SU is the amount of enzyme which cleaves 1 μequivalent of glycoside bonds in saccharose in one minute. The μgram-equivalents of cleaved glucoside bonds are determined photometrically using the hexokinase/glucose-6-phosphate dehydrogenase method as 2 μgram equivalents. The data are calculated as μmoles of hexoses, determined with reference to a glucose calibration curve.
The tests were carried out according to H. U. Bergmeyer, described in "Methods of Enzymatic Analysis", 3rd edition, Verlag Chemie, Weinheim, 1984, pages 96-103.

[2] = biological target: T2, α-Amylase from the pig pancreas (Sus scrofa, UniProt P00690); assay: Amylase test (inhibition of α-amylase, soluble starch according to Zulkowski, dinitrosalicylic acid); type: biochemical; conditions: for specific activity, α-amylase inhibitor units (AIU) per mg: 1 AIU = amount inhibiting two amylase units to 50%, 37° C., pH 6.9
T2 construct: from tissue; host or cells: pig pancreas
T2 sequence (P00690 16-511): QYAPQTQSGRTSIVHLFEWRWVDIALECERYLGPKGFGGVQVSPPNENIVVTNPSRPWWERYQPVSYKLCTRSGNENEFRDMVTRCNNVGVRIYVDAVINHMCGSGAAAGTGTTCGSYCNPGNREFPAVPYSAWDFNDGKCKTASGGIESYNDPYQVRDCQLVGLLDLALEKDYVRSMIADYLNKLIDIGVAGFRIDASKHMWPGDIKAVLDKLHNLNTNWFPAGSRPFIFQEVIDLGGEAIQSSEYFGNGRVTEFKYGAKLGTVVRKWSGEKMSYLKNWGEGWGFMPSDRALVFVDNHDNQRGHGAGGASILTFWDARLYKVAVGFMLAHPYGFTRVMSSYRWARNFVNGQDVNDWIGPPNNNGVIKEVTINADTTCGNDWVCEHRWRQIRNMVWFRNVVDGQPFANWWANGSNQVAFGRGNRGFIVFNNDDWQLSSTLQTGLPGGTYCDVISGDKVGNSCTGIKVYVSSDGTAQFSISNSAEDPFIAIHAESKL
Experimental: as §1
An amylase inhibitor unit (AIU) is defined as the amount of inhibitor which is capable of inhibiting two amylase units (AU) to 50% under the test conditions. According to international agreement, one amylase unit is the amount enzyme which cleaves 1 μequivalent of glucoside bonds in the starch in one minute. The μgram-equivalents of cleaved glucoside bonds are determined photometrically using dinitrosalicylic acid as the μgram-equivalents of reducing sugars. The data are calculated as μmoles of maltose, determined with reference to a maltose calibration line.
The tests are carried out as follows:
α-Amylase from the pig pancreas and the solutions to be tested are preincubated together at 37° C. for 10-20 minutes in 1.0 ml of 20 mM phosphate buffer, pH 6.9+10 mM of NaCl. The enzymatic reaction is initiated according to Zulkowski by adding 1.0 ml of soluble starch (0.25% in the buffer specified). After exactly 10 minutes, the reaction is terminated using 2.0 ml of dinitrosalicylic acid coloring reagent (according to Boehringer Mannheim: BiochemicaInformation II) and the mixture is heated for 5 minutes in a boiling water bath to develop the color. After cooling, the extinction is measured at 546 nm against the blank reagent. 50% inhibition is determined graphically compared to the uninhibited enzyme reaction by means of the probability plot by using various amounts of inhibitor.

experimental animals = assay: Oral administration of high doses to experimental animals (symptoms); type: in vivo; conditions: even high doses
[3] = system: blood glucose concentration of sucrose-fed rats; assay: Action on the blood glucose concentration of sucrose-fed rats; type: in vivo, male Wistar rats; conditions: for Blood glucose: 2 g/kg sucrose, mean ± SEM, n = 7
Excerpt: (§2) In order to test the pharmacological action of the α-glucosidase inhibitors, unfed, male Wistar rats weighing between 200 and 250 g were given orally an inhibitor W-46 H or W-46 P according to the invention together with 2 g of starch or sucrose per kg of body weight as a suspension in ®Tylose (methylhydroxyethylcellulose).
(§3) In these investigations, the values collated in Tables 1 (action on the blood glucose concentration of starch-fed rats) and 2 (action on the blood glucose concentration of sucrose-fed rats) were determined for inhibitor W-46 H.
(§4) A limiting value of 0.27 mg/kg of rat is calculated from the values given in Table 1 and a limiting value of 1.29 mg/kg of rat from the values given in Table 2 (the limiting value of the active ingredient is taken to mean the amount per kg of experimental animal at whose administration a clear action can still be seen after one hour).

[4] = system: blood glucose concentration of starch-fed rats; assay: Action on the blood glucose concentration of starch-fed rats; type: in vivo, male Wistar rats; conditions: for Blood glucose: 2 g/kg starch, mean ± SEM, n = 7
Excerpt: as §2, §3, §4

specific activity, saccharase inhibitor units (SIU) per mg [1]: 9×10^3 SIU/mg | specific activity, α-amylase inhibitor units (AIU) per mg [2]: 3.6×10^4 AIU/mg
SMILES: CC1OC(OC2C(CO)OC(O)C(O)C2O)C(O)C(O)C1NC1C(O)C(O)C(OC2OC(CO)C(OC3OC(C)C(NC4C(O)C(O)C(O)C5(CO)OC45)C(O)C3O)C(O)C2O)C2(CO)OC12 (centres unmarked) [W-46 H glucuronate]

striking symptoms after oral administration (experimental animals): not possible to detect striking symptoms | inhibition of the disaccharidases from the small intestine mucosa, in particular the saccharase (in words) [1]: strongly inhibit | specific activity, saccharase inhibitor units (SIU) per mg [1]: 3×10^4 SIU/mg | inhibition of the α-amylase from the pancreas (in words) [2]: strongly inhibit | specific activity, α-amylase inhibitor units (AIU) per mg [2]: 1×10^4 AIU/mg
SMILES: CC1OC(O)C(O)C(O)C1NC1C(O)C(O)C(OC2OC(CO)C(OC3OC(C)C(NC4C(O)C(O)C(O)C5(CO)OC45)C(O)C3O)C(O)C2O)C2(CO)OC12 (centres unmarked) [W-46 P]

striking symptoms after oral administration (experimental animals): not possible to detect striking symptoms | inhibition of the disaccharidases from the small intestine mucosa, in particular the saccharase (in words) [1]: strongly inhibit | specific activity, saccharase inhibitor units (SIU) per mg [1]: 1×10^4 SIU/mg | specific activity, saccharase inhibitor units (SIU) per mg ([1]; listed as W-46 H (free base)): 1×10^4 SIU/mg | inhibition of the α-amylase from the pancreas (in words) [2]: strongly inhibit | specific activity, α-amylase inhibitor units (AIU) per mg [2]: 4×10^4 AIU/mg | specific activity, α-amylase inhibitor units (AIU) per mg ([2]; listed as W-46 H (free base)): 4×10^4 AIU/mg
SMILES: CC1OC(OC2C(CO)OC(O)C(O)C2O)C(O)C(O)C1NC1C(O)C(O)C(OC2OC(CO)C(OC3OC(C)C(NC4C(O)C(O)C(O)C5(CO)OC45)C(O)C3O)C(O)C2O)C2(CO)OC12 (centres unmarked) [W-46 H]
minimal effective dose ([3]; Rattus norvegicus, po, 1 h, sucrose-fed rats, p.o., calculated from Table 2, read-out: limiting value (amount per kg at whose administration a clear action can still be seen after one hour)): 1.29 mg/kg | Blood glucose ([3]; p.o. dose 1 mg/kg, 0 minutes): 3.99 ± 0.10 mmol/1 | Blood glucose ([3]; p.o. dose 1 mg/kg, 15 minutes): 6.07 ± 0.28 mmol/1 | Blood glucose ([3]; p.o. dose 1 mg/kg, 30 minutes): 6.01 ± 0.22 mmol/1 | Blood glucose ([3]; p.o. dose 1 mg/kg, 60 minutes): 6.34 ± 0.14 mmol/1 | Blood glucose ([3]; p.o. dose 1 mg/kg, 120 minutes): 5.45 ± 0.13 mmol/1 | Blood glucose ([3]; p.o. dose 1 mg/kg, 240 minutes): 4.57 ± 0.07 mmol/1 | Blood glucose ([3]; p.o. dose 3 mg/kg, 0 minutes): 3.94 ± 0.14 mmol/1 | Blood glucose ([3]; p.o. dose 3 mg/kg, 15 minutes): 5.71 ± 0.23 mmol/1 | Blood glucose ([3]; p.o. dose 3 mg/kg, 30 minutes): 5.53 ± 0.19 mmol/1 | Blood glucose ([3]; p.o. dose 3 mg/kg, 60 minutes): 5.47 ± 0.15 mmol/1 | Blood glucose ([3]; p.o. dose 3 mg/kg, 120 minutes): 5.20 ± 0.16 mmol/1 | Blood glucose ([3]; p.o. dose 3 mg/kg, 240 minutes): 4.83 ± 0.15 mmol/1 | Blood glucose ([3]; p.o. dose 10 mg/kg, 0 minutes): 4.01 ± 0.15 mmol/1 | Blood glucose ([3]; p.o. dose 10 mg/kg, 15 minutes): 5.06 ± 0.20 mmol/1 | Blood glucose ([3]; p.o. dose 10 mg/kg, 30 minutes): 5.11 ± 0.10 mmol/1 | Blood glucose ([3]; p.o. dose 10 mg/kg, 60 minutes): 4.82 ± 0.09 mmol/1 | Blood glucose ([3]; p.o. dose 10 mg/kg, 120 minutes): 4.50 ± 0.11 mmol/1 | Blood glucose ([3]; p.o. dose 10 mg/kg, 240 minutes): 4.29 ± 0.22 mmol/1 | minimal effective dose ([4]; Rattus norvegicus, po, 1 h, starch-fed rats, p.o., calculated from Table 1, read-out: limiting value (amount per kg at whose administration a clear action can still be seen after one hour)): 0.27 mg/kg | Blood glucose ([4]; p.o. dose 0.3 mg/kg, 0 hours): 3.77 ± 0.09 mmol/L | Blood glucose ([4]; p.o. dose 0.3 mg/kg, 0.5 hours): 5.53 ± 0.17 mmol/L | Blood glucose ([4]; p.o. dose 0.3 mg/kg, 1 hour): 5.59 ± 0.06 mmol/L | Blood glucose ([4]; p.o. dose 0.3 mg/kg, 2 hours): 5.67 ± 0.13 mmol/L | Blood glucose ([4]; p.o. dose 0.3 mg/kg, 3 hours): 4.86 ± 0.18 mmol/L | Blood glucose ([4]; p.o. dose 0.3 mg/kg, 5 hours): 4.39 ± 0.13 mmol/L | Blood glucose ([4]; p.o. dose 1.0 mg/kg, 0 hours): 3.93 ± 0.10 mmol/L | Blood glucose ([4]; p.o. dose 1.0 mg/kg, 0.5 hours): 5.04 ± 0.08 mmol/L | Blood glucose ([4]; p.o. dose 1.0 mg/kg, 1 hour): 5.07 ± 0.09 mmol/L | Blood glucose ([4]; p.o. dose 1.0 mg/kg, 2 hours): 4.99 ± 0.14 mmol/L | Blood glucose ([4]; p.o. dose 1.0 mg/kg, 3 hours): 4.57 ± 0.10 mmol/L | Blood glucose ([4]; p.o. dose 1.0 mg/kg, 5 hours): 4.13 ± 0.08 mmol/L

specific activity, saccharase inhibitor units (SIU) per mg [1]: 9.6×10^3 SIU/mg | specific activity (α-amylase inhibitor units) ([2]; sulfate, printed without per mg): 3.8×10^4 AIU
SMILES: CC1OC(OC2C(CO)OC(O)C(O)C2O)C(O)C(O)C1NC1C(O)C(O)C(OC2OC(CO)C(OC3OC(C)C(NC4C(O)C(O)C(O)C5(CO)OC45)C(O)C3O)C(O)C2O)C2(CO)OC12 (centres unmarked) [W-46 H sulfate]

specific activity, saccharase inhibitor units (SIU) per mg [1]: 1×10^4 SIU/mg | specific activity, α-amylase inhibitor units (AIU) per mg [2]: 3.9×10^4 AIU/mg
SMILES: CC1OC(OC2C(CO)OC(O)C(O)C2O)C(O)C(O)C1NC1C(O)C(O)C(OC2OC(CO)C(OC3OC(C)C(NC4C(O)C(O)C(O)C5(CO)OC45)C(O)C3O)C(O)C2O)C2(CO)OC12 (centres unmarked) [W-46 H chloride]
